Experimental data as given in US12551532B2, “Long-acting amylin receptor agonists and uses thereof” (Eli Lilly and Company, priority 2021, dated 2026).
Starred links: 1 amine or outer side, 2 acyl side, 3 side chain; linkers in the order of their positions; H or OH if unused. Positions of bridges follow the written chain, without caps; N, C: chain ends. Non-standard residues stand in square brackets, D forms with d. Residues, ends and D or L forms follow the SMILES beside them. Groups on a side chain read outwards from the residue. *: point of attachment. C20 diacid = O=C(O)CCCCCCCCCCCCCCCCCCC(=O)*; γGlu = O=C(O)[C@H](CCC(=O)[*:2])N[*:1]; αMeF = C[C@](N)(Cc1ccccc1)C(=O)O; NMeD = CN[C@@H](CC(=O)O)C(=O)O; Orn = NCCC[C@H](N)C(=O)O; AEEA = NCCOCCOCC(=O)O; Aib = CC(C)(N)C(=O)O; CH2 = C([*:1])[*:2]

How the values were obtained:
human CT receptors = biological target: T1, human CT receptors (Homo sapiens, UniProt P30988); assay: hCTR cAMP functional activity (HTRF); assay type: cell-based; conditions: ±SE; UMUC3 cells overexpressing hCTR; relative EC50
T1 construct: expressed in transfected cells
T1 sequence (P30988 25-474): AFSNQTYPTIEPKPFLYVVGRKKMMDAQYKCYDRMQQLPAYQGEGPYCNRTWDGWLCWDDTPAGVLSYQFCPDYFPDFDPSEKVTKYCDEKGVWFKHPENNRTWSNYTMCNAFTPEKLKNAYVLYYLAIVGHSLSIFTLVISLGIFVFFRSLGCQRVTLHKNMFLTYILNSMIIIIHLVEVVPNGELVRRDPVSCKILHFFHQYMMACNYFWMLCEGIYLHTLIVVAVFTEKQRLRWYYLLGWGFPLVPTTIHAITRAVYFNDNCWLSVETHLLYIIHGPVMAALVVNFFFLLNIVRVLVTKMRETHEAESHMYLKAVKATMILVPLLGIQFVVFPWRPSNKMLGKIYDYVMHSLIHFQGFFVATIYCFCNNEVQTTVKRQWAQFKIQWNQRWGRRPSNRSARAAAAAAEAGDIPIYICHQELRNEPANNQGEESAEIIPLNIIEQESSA
Protocol: (§1) The AMY1 and CT receptors are GPCRs that are functionally coupled to Gas proteins. […] In vitro activity of peptides is measured by the amount of cAMP formed in human AMY1R and CTR overexpressed cells.
Human CT receptors are stably expressed in human urinary bladder cells (UM-UC-3, or UMUC3) under control of a pcDNA expression vector. […] After 20 days under selection, the mRNA levels from different clones are measured to confirm the expression of hCTR. To determine the function of over-expressed hCTR cells, the intracellular cAMP levels in response to salmon calcitonin are measured and compared to the expression of hCTR mRNA in each clone.
(§2) hAMY1R cells are cultured in MEM 1× (Corning) supplemented with 10% FBS, 1% antibiotic/antimycotic solution, 1 mM sodium pyruvate, 1×MEM NEAA, 1× GlutaMAX-I, 200 μg/mL hygromycin B, and 0.4 μg/mL puromycin. The hCTR cells are cultured in the same medium lacking the puromycin. Cultured cells are grown to 70% confluency and then incubated overnight with fresh medium.
(§3) Peptides diluted in DMSO are added (200 nL/well) in a 1:3 dilution series using ECHO acoustic liquid handler (Beckman). Cultured cells are detached with TrypLE Express (Gibco), resuspended in assay buffer, and 10 μL containing 1200 cells/well (hCTR) or 1500 cells/well (hAMY1R) are dispensed into each well. The plates are incubated at room temperature for 1 hour.
(§4) The amount of intracellular cAMP is quantitated using HTRF technology (Homogeneous Time Resolved Fluorescence; Cisbio) as per vendor instructions. Briefly, 10 μL cAMP-d2 conjugate and 10 μL anti-cAMP-cryptate conjugate in lysis buffer are incubated with the treated cells at room temperature for 60 min. […] The raw data are converted to cAMP amount (pmol/well) using a cAMP standard curve generated for each experiment.

hAMY1R = biological target: T2, hAMY1R (Homo sapiens, UniProt O60894+P30988); assay: hAMY1R cAMP functional activity (HTRF); assay type: cell-based; conditions: ±SE; UMUC3 cells overexpressing hAMY1R; relative EC50
T2 construct: expressed in transfected cells
Protocol: as §1
Human AMY1R stable cell lines are generated by further transfecting human RAMP1-pCMVpuroPB (T14213) into UMUC3 hCTR clone cells. After selection, the mRNA levels human RAMP1 from different clones are measured to confirm the expression of human AMY1R.
as §2, §3, §4

[1] = DIO rats: Compound II alone and in combination with incretin compounds; assay type: in vivo, Long Evans rats; conditions: for Cumulative Food Intake: 14-day treatment period, mean±SEM
Protocol: This study is conducted to investigate the effect of Compound II for diabetes and/or obesity conditions in DIO rats when administered in combination with other incretin compounds, including a GLP-1 agonist (Compound XVII), oxyntomodulin analog (Compound XVIII), and a triagonist of glucagon, GLP-1, and GIP (Compound XIX). Diet-induced obese (DIO) male Long Evans (Envigo) rats, maintained on a calorie rich diet since arrival at Lilly (TD95217; Teklad, Madison, WI), are used in the following studies. Animals are individually housed in a temperature-controlled (24° C.) facility with 12-hour light/dark cycle (lights on 2200) and free access to food (TD95217) and water.
The rats are randomized according to their body weight, so that each experimental group of animals would have similar body weight. The body weights range from 529 to 823 grams.
Each group contains five rats. […] SC injections are made on Days 1, 4, 7, 10 and 13. Body weight and food intake are measured daily throughout the study. Absolute changes in body weight are calculated by subtracting the body weight of the same animal prior to the first injection of molecule.
At the end of the study, blood is collected to measure blood glucose and plasma insulin. Blood glucose is measured by AccuChek glucometers (Roche, Indianapolis, IN). Insulin is measured by ELISA (MSD, Rockville, MD).
All data are presented as mean±SEM of 5 animals per group. Statistical analysis is performed using one-way ANOVA, followed by Tukey's multiple comparison test to compare treatment groups to vehicle group or each other. Significant differences are identified at p<0.05.

T2 sequence (O60894 27-148 partner, one chain of several): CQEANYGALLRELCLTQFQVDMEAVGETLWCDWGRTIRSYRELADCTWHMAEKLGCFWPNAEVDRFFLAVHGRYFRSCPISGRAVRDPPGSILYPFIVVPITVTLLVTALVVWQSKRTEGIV

EC50 (human CT receptors) [nM] | EC50 (hAMY1R) [nM] | Molecule | further results
17 ± 2.44 | 0.139 ± 0.017 | CC[C@H](C)[C@H](NC(=O)[C@@H]1CCCN1C(=O)CNC(=O)[C@H](Cc1ccccc1)NC(=O)[C@H](CC(=O)O)N(C)C(=O)[C@H](CC(N)=O)NC(=O)[C@H](CO)NC(=O)[C@H](CO)NC(=O)[C@H](CCCNC(=N)N)NC(=O)[C@@H](NC(=O)[C@H](CC(C)C)NC(=O)[C@](C)(Cc1ccccc1)NC(=O)[C@H](CCC(=O)O)NC(=O)[C@H](C)NC(=O)[C@H](CC(C)C)NC(=O)[C@H](CCCN)NC(=O)CNC(=O)[C@@H](NC(=O)[C@H](C)NC(=O)[C@@H]1CSCSC[C@H](NC(=O)[C@@H](N)CCCCN)C(=O)N[C@@H](CCC(=O)O)C(=O)N[C@@H]([C@@H](C)O)C(=O)N[C@@H](C)C(=O)N[C@@H]([C@@H](C)O)C(=O)N1)[C@@H](C)O)C(C)C)C(=O)N[C@@H](CC(C)C)C(=O)N1CCC[C@H]1C(=O)N1CCC[C@H]1C(=O)N[C@H](C(=O)N[C@@H](CCC(=O)O)C(=O)N[C@H](C(=O)NCC(=O)N[C@@H](CO)C(=O)N[C@@H](CC(N)=O)C(=O)N[C@H](C(=O)N[C@@H](Cc1ccc(O)cc1)C(N)=O)[C@@H](C)O)C(C)C)[C@@H](C)O [Compound V, KCETATCATG-Orn-LAE-αMeF-LVRSSN-NMeD-FGPILPPTEVGSNTY-NH2] (H-KCETATCATG[Orn]LAE[αMeF]LVRSSN[NMeD]FGPILPPTEVGSNTY-NH2; linker 2-7 via CH2) | –
– | – | Y-Aib-QGTFTSDYSI-αMeL-LDKK((2-[2-(2-Amino-ethoxy)-ethoxy]-acetyl)-(γGlu)-CO-(CH2)18-CO2H)AQ-Aib-AFIEYLLEGGPSSGAPPPS-NH2 (YXQGTFTSDYSIXLDKKAQXAFIEYLLEGGPSSGAPPPS; Aib, αMeL; lipidated Lys; C-terminal amide; SITE 2 X at position 2 is Aib; SITE 13 X at position 13 is alpha-methyl-leucine; MOD_RES 17 K at position 17 is chemically modified by conjugation of the epsilon-amino group of the lysine side chain with (2-[2-(2-amino-ethoxy)-ethoxy]-acetyl)-(gamma-glutamic acid)-CO-(CH2)18-CO2H; SITE 20 X at position 20 is Aib; MOD_RES 39 S at position 39 is amidated) [Compound XIX, triagonist of glucagon, GLP-1, and GIP] | Body Weight Change ([1]; 3 nmol/kg SC Day 1, 4, 7, 10, 13, Day 1 to Day 14, mean±SEM): -43.28 ± 2.54 g; Cumulative Food Intake ([1]; 3 nmol/kg SC every three days): 157.50 ± 10.63 g
– | – | H-Aib-QGTFTSDYSKYLDEKKAK((2-[2-(2-Amino-ethoxy)-ethoxy]-acetyl)2-(γGlu)-CO-(CH2)18-CO2H)EFVEWLLEGGPSSG-NH2 (H-H[Aib]QGTFTSDYSKYLDEKKAK([AEEA-AEEA-γGlu-C20 diacid])EFVEWLLEGGPSSG-NH2) [Compound XVIII, oxyntomodulin analog] | Body Weight Change ([1]; 10 nmol/kg SC Day 1, 4, 7, 10, 13, Day 1 to Day 14, mean±SEM): -50.24 ± 6.36 g; Cumulative Food Intake ([1]; 10 nmol/kg SC every three days): 165.86 ± 7.45 g
10.5 ± 2.2 | 0.038 ± 0.0078 | CC(C)C[C@H](NC(=O)[C@H](CCCCN)NC(=O)CNC(=O)[C@@H](NC(=O)[C@H](C)NC(=O)[C@@H]1CSCSC[C@H](NC(=O)CC[C@H](N)C(=O)O)C(=O)N[C@@H](CC(N)=O)C(=O)N[C@@H]([C@@H](C)O)C(=O)N[C@@H](C)C(=O)N[C@@H]([C@@H](C)O)C(=O)N1)[C@@H](C)O)C(=O)N[C@@H](C)C(=O)N[C@@H](CCC(=O)O)C(=O)N[C@@H](Cc1ccccc1)C(=O)N[C@@H](CC(C)C)C(=O)N[C@H](C(=O)N[C@@H](CCCNC(=N)N)C(=O)N[C@@H](CO)C(=O)N[C@@H](CO)C(=O)N[C@@H](CC(N)=O)C(=O)N[C@@H](CC(N)=O)C(=O)N[C@@H](Cc1ccccc1)C(=O)NCC(=O)N1CCC[C@H]1C(=O)N[C@@H](CCCCNC(=O)CC[C@H](NC(=O)CC[C@H](NC(=O)COCCOCCNC(=O)CCCCCCCCCCCCCCCCCCC(=O)O)C(=O)O)C(=O)O)C(=O)N[C@@H](CC(C)C)C(=O)N1CCC[C@H]1C(=O)N1CCC[C@H]1C(=O)N[C@H](C(=O)N[C@@H](CCC(=O)O)C(=O)N[C@H](C(=O)NCC(=O)N[C@@H](CO)C(=O)N[C@@H](CC(N)=O)C(=O)N[C@H](C(=O)N[C@@H](Cc1ccc(O)cc1)C(N)=O)[C@@H](C)O)C(C)C)[C@@H](C)O)C(C)C [Compound XI] (γGlu-CNTATCATGKLAEFLVRSSNNFGPK([γGlu-γGlu-AEEA-C20 diacid])LPPTEVGSNTY-NH2; linker 1-6 via CH2) | –
14 ± 3.32 | 0.08 ± 0.013 | CC(C)C[C@H](NC(=O)[C@H](CCCCN)NC(=O)CNC(=O)[C@@H](NC(=O)[C@H](C)NC(=O)[C@@H]1CSCSC[C@H](NC(=O)CC[C@H](N)C(=O)O)C(=O)N[C@@H](CC(N)=O)C(=O)N[C@@H]([C@@H](C)O)C(=O)N[C@@H](C)C(=O)N[C@@H]([C@@H](C)O)C(=O)N1)[C@@H](C)O)C(=O)N[C@@H](C)C(=O)N[C@@H](CCC(=O)O)C(=O)N[C@@H](Cc1ccccc1)C(=O)N[C@@H](CC(C)C)C(=O)N[C@H](C(=O)N[C@@H](CCCNC(=N)N)C(=O)N[C@@H](CO)C(=O)N[C@@H](CO)C(=O)N[C@@H](CC(N)=O)C(=O)N[C@@H](CC(N)=O)C(=O)N[C@@H](Cc1ccccc1)C(=O)NCC(=O)N1CCC[C@H]1C(=O)N[C@@H](CCCCNC(=O)CC[C@H](NC(=O)COCCOCCNC(=O)COCCOCCNC(=O)CCCCCCCCCCCCCCCCCCC(=O)O)C(=O)O)C(=O)N[C@@H](CC(C)C)C(=O)N1CCC[C@H]1C(=O)N1CCC[C@H]1C(=O)N[C@H](C(=O)N[C@@H](CCC(=O)O)C(=O)N[C@H](C(=O)NCC(=O)N[C@@H](CO)C(=O)N[C@@H](CC(N)=O)C(=O)N[C@H](C(=O)N[C@@H](Cc1ccc(O)cc1)C(N)=O)[C@@H](C)O)C(C)C)[C@@H](C)O)C(C)C [Compound X] (γGlu-CNTATCATGKLAEFLVRSSNNFGPK([γGlu-AEEA-AEEA-C20 diacid])LPPTEVGSNTY-NH2; linker 1-6 via CH2) | –
